Values quoted from earlier work in US10028967B2, “Medicament” (Symrise AG, priority 2014, dated 2018).

Conditions: oral phenylephrine, compared to intravenous pseudoephedrine; reduced and variable

- bioavailability: up to 38%
SMILES: CNC[C@H](O)c1cccc(O)c1 [Phenylephrine]
